Experimental data: patent EP4730355A1, “TYPING SYSTEM AND METHOD FOR HR-POSITIVE/HER2-NEGATIVE BREAST CANCER” (Lumitype Medical (Huzhou) Co., Ltd., priority 2023, dated 2024)

Columns and labels:
[1] = test system: four subtypes of PDOs; experiment: PDO drug response testing of traditional endocrine therapies (CellTiter-Glo 3D cell survival assay); type: cell-based, human; conditions: compared among four subtypes of PDOs (n = 88)
Description: (§1) Briefly, the fresh breast cancer tissue is cut into small pieces using a sterile surgical knife. The tissue was digested and resuspended in 10 mL of TAC buffer, incubated for 3 minutes to remove red blood cells, and passed through a […] cell strainer (Corning). For passaging, 5 ml of harvesting solution (Trevigen, 3700-100-01) was used to digest the basement membrane extract (BME), which was incubated on ice for 1 hour. Subsequently, the organoids were centrifuged at 350 g for 5 minutes, washed in digestion buffer, and centrifuged. Next, 3 mL of TrypLE Express (Invitrogen) was added, and the organoids were incubated at room temperature for 3 minutes and then mechanically dissociated into small cell clusters using a pipette. The organoids were passaged every 2-3 weeks at a dilution ratio of 1:2-3.
(§2) Drug response testing of triple-negative breast cancer (TNBC) organoids was conducted according to the method of the published paper (Xiao Y, Ma D, Yang YS, Yang F, Ding JH, Gong Y, et al. Comprehensive metabolomics expands precision medicine for triple-negative breast cancer. CELL RES. 2022;32(5):477-90 doi 10.1038/s41422-022-00614-0.). Organoids without undergoing organoid drug treatment were harvested in good condition and digested into single cells. 25 microliters of organoid suspension was added to black cell-repellent surface of a 384-well plate with transparent bottoms (Greiner 781976-SIN) at 1 × 10^3 to 3 × 10^3 cells per well, and cultured for an additional 5-6 days prior to drug treatment. Organoids were co-cultured with the drug for 1 week and then tested for survival. According to the manufacturer's instructions, organoid cell survival rate was assessed by the CellTiter-Glo 3D cell survival assay (Promega, G9683).
The sensitivity of four subtypes of PDOs (n = 88) to three traditional endocrine therapies (estrogen deprivation, 4-hydroxytamoxifen (4OHtam), and fulvestrant) was compared on a PDO drug testing platform. […] In order to investigate the potential mechanism of SNF1 tumor sensitivity to endocrine therapy, the endocrine therapy-related pathways in the multi-omics data from Fudan University Shanghai Cancer Center were analyzed. […] In addition, the expression of endocrine therapy resistance pathways was also compared among the four subtypes.

[2] = test system: advanced HR+/HER2- breast cancer; experiment: Real-world retrospective clinical cohort of advanced HR+/HER2- breast cancer; type: in vivo, human; conditions: SNF3 and SNF4 subtypes; advanced cohort of FUSCC, n = 277; p = 0.033
Description: Frequency tables and summary statistics were used to characterize data distribution. Wilcoxon test and Kruskal-Wallis test were used to compare continuous variables and categorical variables, and Pearson chi-square test and Fisher's exact test were used to compare unordered categorical variables. Survival curves were established using the Kaplan-Meier product-limit method and compared with the log-rank test to obtain RFS and PFS. RFS was defined as the time from diagnosis to the first recurrence or diagnosis of contralateral breast cancer. PFS was defined as the interval from the start of treatment to disease progression or death due to any cause (whichever occurs first), or to the time of the last PFS assessment for patients with progression-free survival. Univariate and multivariate Cox proportional hazards regression models were constructed to evaluate the hazard ratio (HR) and the corresponding 95% confidence interval (CI). All analyses were performed using R software package version 3.6.1 (https://cran.r-project.org/).
For deeper insights into the landscape of metastatic HR+/HER2- breast cancer, we constructed a real-world cohort of patients with advanced HR+/HER2- breast cancer from FUSCC and invited other three centers to participate in our real-world study. […] Their tumor progression were evaluated according to RECIST v1.1.

[3] = test system: SNF3-PDO; experiment: PDO drug response testing with CDK4/6 inhibitor and PARP inhibitor (CellTiter-Glo 3D cell survival assay); type: cell-based, human; conditions: for growth ability of SNF3-PDO: single drug; for PDO growth ability: SNF3 subtype and the non-SNF3 subtype (legend of FIGs. 31 and 32)
Description: as §1, §2
In order to gain an in-depth understanding of the biological characteristics of the SNF3 subtype, low-concentration 4-hydroxytamoxifen was used to induce PDO over an extended period to establish a model for studying acquired resistance to endocrine therapy (Xi Jin, Yi-Fan Zhou, Ding Ma, Shen Zhao, Cai-Jin Lin, Yi Xiao, et al. Integrative Molecular Classification of HR+/HER2- Breast Cancer Guides Precision Treatment. Nature Genetics under minor revision. 2023.02.26.).
In view of the high enrichment of SNF3 tumors in homologous recombination deficiency score, chromosomal instability, and cell cycle activity, the response of SNF3 PDOs to CDK4/6 inhibitors and PARP inhibitors was tested. […] In addition, regardless of BRCA mutation, the homologous recombination deficiency score of SNF3 tumors was much higher (FIG. 35). The above results indicated the therapeutic susceptibility of the SNF3 subtype to CDK4/6 inhibitors and PARP inhibitors; therefore, CDK4/6 inhibitors and PARP inhibitors or combinations thereof may be potential accurate treatment strategies for SNF3 tumors.

[4] = target: SNF4 tumors; experiment: PDO drug sensitivity testing of tyrosine kinase inhibitors; type: cell-based, human; conditions: for IC50: SNF4 tumors compared with other subtypes, PDO
Description: as §1, §2
Next, based on the identified key receptors, 12 tyrosine kinase inhibitors were selected to construct a "tyrosine kinase inhibitor combination," including tyrosine kinase inhibitors targeting the ErbB family (afatinib, lapatinib, pyrotinib), the PDGFR family (axitinib, sunitinib), the VEGFR family (foretinib, apatinib), the TAM receptor (sitravatinib), as well as some multi-target tyrosine kinase inhibitors (sorafenib, vandetanib, regorafenib, famitinib). The combination is used for PDO drug sensitivity testing to verify the tyrosine kinase inhibitor most sensitive to SNF4 tumors (FIG. 38). […] Combining the drug sensitivity results of the above 12 tyrosine kinase inhibitors and the targets of the above four drugs, VEGFR and PDGFR signaling were preliminarily identified as potential therapeutic vulnerabilities of SNF4 tumors.

[5] = test system: signaling pathway activated by PDGF in SNF4 tumor; experiment: PDGF-activated signaling pathway changes after tyrosine kinase inhibitor treatment; type: cell-based, human
[6] = test system: SNF4 subtype cancer-associated fibroblasts (CAF); experiment: Efficacy on patient-derived cancer cells co-cultured with fibroblasts; type: cell-based, human; conditions: sorafenib (1 µM)
Description: (F-G) The efficacy of sorafenib (1 µM) on patient-derived cancer cells co-cultured with fibroblasts. Scale bar: 100 micrometers. Cancer cells are treated with sorafenib three times. One representative experiment is shown. The experiment is repeated three times, and the results are similar.

C[C@]12CC[C@@H]3c4ccc(O)cc4C[C@@H](CCCCCCCCC[S+]([O-])CCCC(F)(F)C(F)(F)F)[C@H]3[C@@H]1CC[C@@H]2O (some centres unmarked) [fulvestrant]
survival rate ([1]; SNF1-PDO): lowest survival rate
survival rate ([1]; SNF4-PDO): relatively higher survival rate
progression-free survival (PFS) [2]: worse progression-free survival

CCN1CCN(Cc2ccc(Nc3ncc(F)c(-c4cc(F)c5nc(C)n(C(C)C)c5c4)n3)nc2)CC1 [abemaciclib, N-[5-[(4-ethyl-1-piperazinyl)methyl]-2-pyridinyl]-5-fluoro-4-[4-fluoro-2-methyl-1-(1-methylethyl)-1H-benzimidazol-6-yl]-2-pyrimidinamine]
growth ability of SNF3-PDO [3]: significantly inhibited
PDO growth ability [3]: significantly inhibited

CNC(=O)c1cc(Oc2ccc(NC(=O)Nc3ccc(Cl)c(C(F)(F)F)c3)c(F)c2)ccn1 [regorafenib]
IC50 [4]: lower than that of other subtypes
cell viability of SNF4 tumors ([4]; after treatment, Wilcoxon test): significantly decreased

4-hydroxytamoxifen
survival rate ([1]; SNF1-PDO): lowest survival rate
survival rate ([1]; SNF4-PDO): relatively higher survival rate
sensitivity to endocrine therapy ([3]; SNF3-PDO after long-term induction with low-concentration 4-hydroxytamoxifen, unlike other subtypes): less sensitive to endocrine therapy

O=C(c1cc(Cc2n[nH]c(=O)c3ccccc23)ccc1F)N1CCN(C(=O)C2CC2)CC1 [olaparib]
growth ability of SNF3-PDO [3]: significantly inhibited
PDO growth ability [3]: significantly inhibited

CNC(=O)c1cc(Oc2ccc(NC(=O)Nc3ccc(Cl)c(C(F)(F)F)c3)cc2)ccn1 [sorafenib]
IC50 [4]: lower than that of other subtypes
signaling pathway activated by PDGF [5]: significantly downregulated
sensitivity of SNF4 subtype cancer-associated fibroblasts (CAF) [6]: sensitive

CCN(CC)CCN1CCc2[nH]c(/C=C3\C(=O)Nc4ccc(F)cc43)c(C)c2C1=O [famitinib]
IC50 [4]: lower than that of other subtypes
signaling pathway activated by PDGF [5]: significantly downregulated
